The results in this text go back to patent US20080044436A1, “Method for Screening and Compositions for Treating Cancers” (priority 2004, published 2008).

For one experiment, the system named is p27 promoter. Kind of experiment: Luciferase reporter assay in T47-D cells, p27 promoter. It is filed as cell-based, human. Particulars: 30 nM progesterone for 34 hours or TReP-132 expression vector. How it is done:
(§1) FIGS. 14A and 14B: T47-D cells were cotransfected with reporter constructs containing the p21 (FIG. 14A) or p27 (FIG. 14B) promoter. Twelve hours post-transfection, the cells were incubated with 30 nM progesterone or ethanol for 34 hours. The cell lysates were then assayed for luciferase activity. Luciferase activity of the −93p21 Luc and −549p27 Luc constructs represent level 1. Arrows indicate transcription initiation sites.
(§2) The pGL2 and pGL3 reporter constructs (100 ng) were cotransfected with the indicated amounts of expression vectors and 10 ng of the control plasmid pRL.Null. The amount of plasmid was then normalized with the empty vector pcDNA3. After 12 hours of transfection, the medium was changed and cells were incubated for an additional 10 and 34 hours, respectively. During this period, T47-D cells were cultured in the presence and absence of progesterone (30 nM). The cells were then harvested and cell lysates (20 μl) were assayed for luciferase activity (Dual Luciférase™ Reporter Assay System, Promega, Madison, Wis., USA) in a Berthold LUMAT LB9501 luminometer. The transfections were performed in triplicate and each experiment was repeated at least three times.

The next experiment deals with p21 promoter. As to the kind of experiment: Luciferase reporter assay in T47-D cells, p21 promoter. Particulars: 30 nM progesterone for 34 hours or TReP-132 expression vector. The class given is cell-based, human. How it is done:
as §1, §2

`CC(=O)[C@H]1CC[C@H]2[C@@H]3CCC4=CC(=O)CC[C@]4(C)[C@H]3CC[C@]12C` [progesterone, reference compound]: in the experiment with p27 promoter, the p27 promoter activation entry is “activated the two promoters”. For the same molecule, in the experiment with p21 promoter, the p21 promoter activation result was “activated the two promoters”.

B1: TReP-132: Transcriptional Regulating Protein of 132 kDa, polypeptide comprising SEQ ID NO: 2; here expressed in cells from vectors (protein)
chain: MGDQQLYKTNHVAHGSENLFYQQPPLGVHSGLNHNYGNAVTGGGMDAPQASPISPHFPQDTRDGLGLPVGSKNLGQMDTSRQGGWGSHAGPGNHVQLRGNLANSNMMWGAPAQAEPTDGYQYTYSQASEIRTQKLTSGVLHKLDSFTQVFANQNLRIQVNNMAQVLHTQSAVMDGAPDSALRQLLSQKPMEPPAPAIPSRYQQVPQQPHPGFTGGLSKPALQVGQHPTQGHLYYDYQQPLAQVPVQGGQPLQAPQMLSQHMQQMQQHQYYPPQQQQQAGQQRISMQEIQTQPQQIRPSQPQPPPQQQQPQQLQLQQRQGSMQIPQYYQPQPMMQHLQEQQQQQMHLQPPSYHRDPHQYTPEQAHTVQLIPLGSMSQYYYQEPQQPYSHPLYQQSHLSQHQQREDSQLKTYSSDRQAQAMLSSHGDLGPPDTGMGDPASSDLTRVSSTLPHRPLLSPSGIHLNNMGPQHQQLSPSAMWPQMHLPDGRAQPGSPESSGQPKGAFGEQFDAKNKLTCSICLKEFKNLPALNGHMRSHGGMRASPNLKQEEGEKVLPPQPQPPLPPPPPPPPPPQLPPEAESLTPMVMPVSVPVKLLPPKPSSQGFTNSTVAAPSARDKPASSMSDDEMPVLEIPRKHQPSVPKAEEPLKTVQEKKKFRHRPEPLFIPPPPSYNPNPAASYSGATLYQSQLRSPRVLGDHLLLDPTHELPPYTPPPMLSPVRQGSGLFSNVLISGHGPGAHPQLPLTPLTPTPRVLLCRSNSIDGSNVTVTPGPGEQTVDVEPRINIGLRFQAEIPELQDISALAQDTHKATLVWKPWPELENHDLQQRVENLLNLCCSSALPGGGTNSEFALHSLFEAKGDVMVALEMLLLRKPVRLKCHPLANYHYAGSDKWTSLERKLFNKALATYSKDFIFVQKMVKSKTVAQCVEYYYTWKKIMRLGRKHRTRLAEIIDDCVTSEEEEELEEEEEEDPEEDRKSTKEEESEVPKSPEPPPVPVLAPTEGPPLQALGQPSGSFICEMPNCGAVFSSRQALNGHARIHGGTNQVTKARGAIPSGKQKPGGTQSGYCSVKSSPSHSTTSGETDPTTIFPCKECGKVFFKIKSRNAHMKTHRQQEEQQRQKAQKAAFAAEMAATIERTTGPVGAPGLLPLDQLSLIKPIKDVDILDDDVVQQLGGVMEEAEVVDTDLLLDDQDSVLLQGDAEL
As for B1, the p27 promoter activation result in the experiment on p27 promoter was “activated the two promoters”. Further, the p21 promoter activation result with p21 promoter is recorded as “activated the two promoters”.
